Measurements published in PMC2193707 (The Journal of Experimental Medicine, 2002).

Columns and labels:
[1] = molecular target: T1, mCD22 (cellular CD22 on mouse B cells) (Mus musculus, UniProt P35329); assay: flow cytometry, inhibition of NeuGc2,6-PAA-bio probe staining; assay type: cell-based; settings: sialidase-treated mouse B cells (B220+); preincubation on ice 10 min
T1 sequence (P35329 22-868): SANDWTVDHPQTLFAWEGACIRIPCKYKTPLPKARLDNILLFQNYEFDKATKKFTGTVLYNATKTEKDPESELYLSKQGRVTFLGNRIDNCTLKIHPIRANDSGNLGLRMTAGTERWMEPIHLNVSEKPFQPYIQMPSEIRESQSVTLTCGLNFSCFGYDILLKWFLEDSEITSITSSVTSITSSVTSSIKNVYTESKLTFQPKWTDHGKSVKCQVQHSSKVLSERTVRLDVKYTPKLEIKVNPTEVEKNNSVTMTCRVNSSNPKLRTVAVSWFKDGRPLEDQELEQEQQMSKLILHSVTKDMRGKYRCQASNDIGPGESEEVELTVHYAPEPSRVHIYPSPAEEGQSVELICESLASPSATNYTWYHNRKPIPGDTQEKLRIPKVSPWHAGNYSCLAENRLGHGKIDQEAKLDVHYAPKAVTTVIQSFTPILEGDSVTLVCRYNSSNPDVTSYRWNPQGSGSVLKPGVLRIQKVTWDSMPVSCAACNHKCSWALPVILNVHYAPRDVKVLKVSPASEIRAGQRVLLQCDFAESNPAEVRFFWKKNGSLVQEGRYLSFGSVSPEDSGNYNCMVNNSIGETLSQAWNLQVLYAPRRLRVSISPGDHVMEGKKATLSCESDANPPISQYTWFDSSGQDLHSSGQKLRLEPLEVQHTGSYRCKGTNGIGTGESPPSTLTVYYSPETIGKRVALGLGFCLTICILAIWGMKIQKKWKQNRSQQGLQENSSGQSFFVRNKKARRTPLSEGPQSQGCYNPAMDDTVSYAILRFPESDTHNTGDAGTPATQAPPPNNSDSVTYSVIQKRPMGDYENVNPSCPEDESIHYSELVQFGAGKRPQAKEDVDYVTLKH

mCD22d1–3-Fc = molecular target: T2, mCD22d1–3-Fc (Mus musculus, UniProt P35329); assay: hapten inhibition of […]-Fc-chimera binding to fixed target cells
T2 sequence (P35329 22-347 limits assumed): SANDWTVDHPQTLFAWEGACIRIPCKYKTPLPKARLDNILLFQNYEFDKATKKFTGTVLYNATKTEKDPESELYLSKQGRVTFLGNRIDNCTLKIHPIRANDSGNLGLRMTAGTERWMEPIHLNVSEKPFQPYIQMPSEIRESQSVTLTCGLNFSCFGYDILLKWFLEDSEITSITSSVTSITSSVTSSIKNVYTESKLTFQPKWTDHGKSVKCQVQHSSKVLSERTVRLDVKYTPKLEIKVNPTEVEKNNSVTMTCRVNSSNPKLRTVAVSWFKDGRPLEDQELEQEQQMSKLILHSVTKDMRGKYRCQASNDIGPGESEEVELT

hCD22d1–3-Fc = molecular target: T3, hCD22d1–3-Fc (Homo sapiens, UniProt P20273); assay: as above
T3 sequence (P20273 20-330 limits assumed): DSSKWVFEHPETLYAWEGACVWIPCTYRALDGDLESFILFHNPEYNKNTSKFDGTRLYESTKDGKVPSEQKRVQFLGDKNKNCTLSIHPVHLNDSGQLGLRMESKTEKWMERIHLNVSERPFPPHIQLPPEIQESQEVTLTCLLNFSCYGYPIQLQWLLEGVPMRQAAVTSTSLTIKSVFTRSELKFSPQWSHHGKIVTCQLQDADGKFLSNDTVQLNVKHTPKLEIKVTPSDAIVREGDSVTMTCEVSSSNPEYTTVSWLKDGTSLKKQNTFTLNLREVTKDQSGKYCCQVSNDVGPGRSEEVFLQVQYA

mSnd1–3-Fc = mSnd1–3-Fc (Mus musculus, UniProt Q62230); assay: as above
[2] = molecular target: T4, hCD22 (cellular CD22 on Daudi cells) (Homo sapiens, UniProt P20273); assay: flow cytometry, inhibition of NeuGc2,6-PAA-bio probe staining; assay type: cell-based; settings: sialidase-treated Daudi cells; preincubation on ice 10 min
T4 sequence (P20273 20-847): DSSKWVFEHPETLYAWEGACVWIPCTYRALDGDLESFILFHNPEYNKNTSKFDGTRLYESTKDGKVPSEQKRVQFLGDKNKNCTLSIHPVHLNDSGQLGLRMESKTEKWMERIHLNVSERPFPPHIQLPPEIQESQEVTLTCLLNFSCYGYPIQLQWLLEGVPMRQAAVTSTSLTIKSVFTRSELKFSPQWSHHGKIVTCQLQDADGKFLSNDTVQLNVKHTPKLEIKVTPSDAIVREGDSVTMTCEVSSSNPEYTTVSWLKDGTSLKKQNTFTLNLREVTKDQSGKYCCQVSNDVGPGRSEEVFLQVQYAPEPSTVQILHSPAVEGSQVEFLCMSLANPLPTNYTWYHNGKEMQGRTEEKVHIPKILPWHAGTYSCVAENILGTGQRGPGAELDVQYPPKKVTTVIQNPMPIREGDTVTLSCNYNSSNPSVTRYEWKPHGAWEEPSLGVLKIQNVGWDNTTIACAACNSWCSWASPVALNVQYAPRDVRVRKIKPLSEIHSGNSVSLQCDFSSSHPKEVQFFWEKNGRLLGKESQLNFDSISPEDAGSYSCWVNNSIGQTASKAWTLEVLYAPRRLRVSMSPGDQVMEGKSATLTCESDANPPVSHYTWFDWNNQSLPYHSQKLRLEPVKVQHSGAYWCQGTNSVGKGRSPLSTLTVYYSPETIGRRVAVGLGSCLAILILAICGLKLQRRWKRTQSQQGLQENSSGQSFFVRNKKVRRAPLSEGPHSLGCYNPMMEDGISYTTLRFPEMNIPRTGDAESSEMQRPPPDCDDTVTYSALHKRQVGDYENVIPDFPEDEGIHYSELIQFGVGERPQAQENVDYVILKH

Sequence of mSnd1–3-Fc (Q62230 20-325 limits assumed): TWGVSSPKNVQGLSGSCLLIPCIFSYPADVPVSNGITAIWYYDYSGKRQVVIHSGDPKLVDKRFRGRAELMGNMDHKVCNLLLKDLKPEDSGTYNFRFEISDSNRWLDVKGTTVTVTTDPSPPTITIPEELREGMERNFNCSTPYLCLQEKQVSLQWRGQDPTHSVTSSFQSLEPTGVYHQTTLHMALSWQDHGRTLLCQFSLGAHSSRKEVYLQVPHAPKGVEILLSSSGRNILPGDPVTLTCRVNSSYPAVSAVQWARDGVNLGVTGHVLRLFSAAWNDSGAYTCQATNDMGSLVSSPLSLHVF

Compound | flow cytometry, inhibition of NeuGc2,6-PAA-bio probe staining [1] | IC50 (mCD22d1–3-Fc) | IC50 (hCD22d1–3-Fc) | IC50 (mSnd1–3-Fc) | flow cytometry, inhibition of NeuGc2,6-PAA-bio probe staining [2]
CO[C@]1(C(=O)O)C[C@H](O)[C@@H](NC(C)=O)[C@H]([C@H](O)[C@H](O)CNC(=O)Cc2ccc(-c3ccccc3)cc2)O1 [BPAc-Neu5Ac, Methyl-a-9-N-(biphenyl-4-acetyl)-amino-9-deoxy-Neu5Ac] | performed on mouse B cells, BPAc-Neu5Ac was the more potent inhibitor | – | – | – | –
CO[C@]1(C(=O)O)C[C@H](O)[C@@H](NC(C)=O)[C@H]([C@H](O)[C@H](O)CNC(=O)c2ccc(-c3ccccc3)cc2)O1 [BPC-Neu5Ac, Methyl-a-9-N-(biphenyl-4-carbonyl)-amino-9-deoxy-Neu5Ac] | – | 1220 µM | 4 µM | 52 µM | Pretreatment with BPC-Neu5Ac was most potent in inhibiting the binding of the synthetic CD22 ligand
